The text below walks through data of PubChem BioAssay AID1996.

Values after ≈ are worked out from the molar mass of the structure shown.

The conditions of the series: buffer; pH 7.4; 200.0 µM.
Regarding `O=C(Cc1ccc(Cl)cc1)NCCc1cnc[nH]1`, the solubility (kinetic) was greater than 39.6 µg/mL.
`CN1C(=O)c2ccc(NC(=O)c3c(C(=O)O)cccc3[N+](=O)[O-])cc2C1=O` registered a kinetic solubility greater than 55.4 µg/mL.
In turn, `OC(c1nc2ccccc2[nH]1)C(O)c1nc2ccccc2[nH]1` (stereo unspecified) registered a solubility (kinetic) greater than 44.1 µg/mL.
`CCOC(=O)c1ccccc1NC(=O)Cc1ccc(S(=O)(=O)N2CCCC2)s1` displayed a solubility (kinetic) of 17.5 µg/mL (≈ 41.4 µM).
The compound `O=C(COc1ccccc1Cl)Nc1nc(-c2ccncc2)cs1` came in with a solubility (kinetic) of 11.4 µg/mL (≈ 33 µM).
Compound `COc1ccc2[nH]cc(CCNC(=O)CCC3CCCCC3)c2c1` registered a solubility (kinetic) of 29.9 µg/mL (≈ 91 µM).
In turn, `Nc1ccccc1C(O)(Cc1ccccc1)c1ccccc1` (stereo unspecified) returned a kinetic solubility of 17.3 µg/mL (≈ 59.8 µM).
Compound `CCCc1c(C)nn(-c2ncccc2[N+](=O)[O-])c1C` came in with a kinetic solubility greater than 39 µg/mL.
Turning to `CCN(Cc1ccccc1)C(=O)c1oc2ccc(C)cc2c1C`, the solubility (kinetic) was 3 µg/mL (≈ 9.76 µM).
Consider `O=C(CN1CCCCCC1)Nc1ccc(Cl)cn1`, for which the solubility (kinetic) amounted to 35.3 µg/mL (≈ 132 µM).
Then `CC1CCN(S(=O)(=O)c2ccc(Cl)s2)CC1`, with 15.3 µg/mL (≈ 54.7 µM).
Then `CN1CC(C(=O)Nc2ccc(F)c(Cl)c2)CC1=O` (stereo unspecified), with greater than 40.6 µg/mL; and `CC(=O)Nc1ccc(N/C=C/C(=O)c2ccc(C)cc2)cc1`, with 3.2 µg/mL (≈ 10.9 µM); and `Cc1ccc2nc(NC(=O)COC(=O)c3cccnc3)sc2c1`, with 7.5 µg/mL (≈ 22.9 µM).
`O/N=C/c1ccc2cccc(OCc3ccccc3)c2n1` displayed a kinetic solubility of 2.1 µg/mL (≈ 7.55 µM).
In the case of `OCCC1CN(Cc2cccn2-c2ncccn2)CCN1C1CCCC1` (stereo unspecified), the kinetic solubility is 51.5 µg/mL (≈ 145 µM).
For the compound `CC(=O)NCc1ccc(-c2csc(NC(=O)CCc3nc4ccccc4c(=O)[nH]3)n2)s1`, the solubility (kinetic) was found to be 7.3 µg/mL (≈ 16.1 µM).
For the compound `CC1SCC(=NOCc2c(Cl)cccc2Cl)CS1` (stereo unspecified), the kinetic solubility is less than 0.7 µg/mL.
In turn, `O=S(=O)(Nc1ccncc1Cl)c1ccc2ccccc2c1` yielded a kinetic solubility of 42.3 µg/mL (≈ 133 µM).
Next, `CC(=O)NS(=O)(=O)c1ccc(NC(=O)[C@@H]2CCCN2S(=O)(=O)c2ccc(Cl)cc2)cc1`: greater than 72.9 µg/mL; `CCc1nc2ccccc2c(C(=O)Nc2cc(C)ccc2C)c1C`: 45.6 µg/mL (≈ 143 µM); `CCCCCCOC(=O)Cc1c(C)nc(N)[nH]c1=O`: greater than 40.1 µg/mL.
Regarding `CC(NC(=O)c1cc2cc([N+](=O)[O-])ccc2oc1=O)C1CCCO1` (stereo unspecified), the solubility (kinetic) was 36.5 µg/mL (≈ 110 µM).
On to `NC(=O)C1CCN(S(=O)(=O)c2ccc3c(c2)OCCO3)CC1`, for which the kinetic solubility was greater than 49 µg/mL.
The compound `NS(=O)(=O)c1cccc(NC(=O)Nc2ccccc2)c1` yielded a kinetic solubility greater than 43.7 µg/mL.
With `COCCNS(=O)(=O)c1ccc(C)c(C)c1C`, the solubility (kinetic) was found to be 34.9 µg/mL (≈ 136 µM).
On to `O=C(CSc1cccc2cccnc12)Nc1cc(C(=O)O)cc(C(=O)O)c1`, for which the kinetic solubility was found to be 52 µg/mL (≈ 136 µM).
As to `Cn1c(NNC(=O)c2c(F)cccc2F)cc(=O)n(C)c1=O`, the solubility (kinetic) is greater than 46.5 µg/mL.
For `Cc1ccc(NC(=O)c2ccc(F)cc2F)cc1NS(C)(=O)=O`, the kinetic solubility was 39.7 µg/mL (≈ 117 µM).
As for `COc1ccc(CCNCCN2CCOCC2)cc1.Cl`, the solubility (kinetic) was found to be 24.9 µg/mL.
Compound `Cc1ccc(N2CC(C(=O)N3CCOCC3)CC2=O)cc1C` (stereo unspecified) registered a solubility (kinetic) of 34.3 µg/mL (≈ 113 µM).
Turning to `COc1ccc(CNC(=S)NCc2ccc(F)cc2)cc1`, the solubility (kinetic) is 9.5 µg/mL (≈ 31.2 µM).
As for `c1ccc(CC(NCc2ccco2)c2ccccc2)cc1` (stereo unspecified), the solubility (kinetic) amounted to 13.6 µg/mL (≈ 49 µM).
As to `CC(=O)Nc1cccc2c1Cc1ccccc1-2`, the solubility (kinetic) was determined as 11.7 µg/mL (≈ 52.4 µM).
Then `Cc1cc(C(=O)COc2cccc([N+](=O)[O-])c2)c(C)n1C1CC1`, with 6.2 µg/mL (≈ 19.7 µM); and `O=C(CN1C(=O)NC(Cc2c[nH]c3ccccc23)C1=O)NC1CC1` (stereo unspecified), with greater than 49 µg/mL.
Next, `CCc1noc(C)c1C(=O)OCC(=O)NC(C)c1ccccc1` (stereo unspecified): greater than 47.5 µg/mL.
`O=[N+]([O-])c1cccnc1Sc1ccc(Cl)cc1`: the solubility (kinetic) turned out to be 0.7 µg/mL (≈ 2.62 µM).
Take `Fc1ccc(N=Cc2ccc[nH]2)cc1`: the kinetic solubility worked out at 11 µg/mL (≈ 58.4 µM).
In turn, `C=CCn1ccc(O)c(Cc2ccc(Cl)cc2)c1=O` yielded a solubility (kinetic) of 38.6 µg/mL (≈ 140 µM).
`COc1ccc(NC(=O)C2C3CCC(O3)C2C(=O)O)c(C)c1` (stereo unspecified) came in with a solubility (kinetic) of 45.4 µg/mL (≈ 149 µM).
